Tests used:
C57BL/6J mice [1] = experiment: animal or person; format: in vivo; conditions: Mus musculus, sc, read-out: antinociception ED50 (and 95% CI)
C57BL/6J mice [2] = conditions: mouse, in vivo

## CN1CC[C@]23c4c5ccc(O)c4O[C@H]2[C@@H](O)C=C[C@H]3[C@H]1C5 [Morphine]
C57BL/6J mice [1]
  ED50: 4 mg/kg
C57BL/6J mice [2]; C57BL/6J
  withdrawal: jumping frequency vs saline: ****p < 0.0001
  withdrawal: teeth chattering frequency vs saline: ***p = 0.0003
C57BL/6J mice [2]
  withdrawal: forepaw licking frequency vs saline: significant
  withdrawal: rearing frequency vs saline: significant
